Assays:
[1] = test system: Giardia intestinalis; test: Anti-parasitic activity against Giardia intestinalis assemblage A ATCC 30957 trophozoites assessed as inhibition of cyst production incubated for 24 hrs; assay type: functional, organism-based; settings: Giardia duodenalis, assemblage A ATCC 30957, 24 h
[2] = test system: Giardia intestinalis; test: Anti-parasitic activity against Giardia intestinalis assemblage A ATCC 30957 trophozoites assessed as inhibition of parasite growth incubated for 24 hrs; assay type: functional, organism-based; settings: Giardia duodenalis, assemblage A ATCC 30957, 24 h

| SMILES | IC50 [1] | IC50 [2] |
| --- | --- | --- |
| CCC(CC)O[C@@H]1CC(C(=O)O)=C[C@H](N=[N+]=[N-])[C@H]1NC(C)=O | 50 µM | 30 µM |
| CCC(CC)O[C@@H]1CC(C(=O)O)=C[C@H](N)[C@H]1NC(C)=O | 42 µM | 49 µM |
| CCC(CC)O[C@@H]1CC(C(=O)O)=C[C@H](NC(C)=O)[C@H]1NC(C)=O | 41 µM | 40 µM |
| CCOC(=O)C1=C[C@@H](OC(CC)CC)[C@H](NC(C)=O)[C@@H](N)C1 [OSELTAMIVIR] | 46 µM | > 120 µM |
| Cc1ncc([N+](=O)[O-])n1CCO [METRONIDAZOLE] | 4 µM | 4 µM |
| CCOC(=O)C1=C[C@H](NC(=O)CF)[C@@H](NC(C)=O)[C@H](OC(CC)CC)C1 | 41 µM | 54 µM |
| CCCC(=O)N[C@@H]1[C@@H](N=[N+]=[N-])C=C(C(=O)O)C[C@H]1OC(CC)CC | 46 µM | 51 µM |
